The test system of the test is BDF1 mice, intracerebral L1210 leukemia, survival T/C. Briefly: NCI In Vivo Anticancer Drug Screen. Data for tumor model L1210 Leukemia (intracerebral) in B6D2F1 (BDF1) mice. To be noted: higher = longer survival. In short, it runs like this:
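Survival measured in treated and vehicle-control tumour-bearing mice; value = T/C.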

Setting [1] is: endpoint: median survival time, dose: 65.0 mg/kg/injection, schedule: Q01DX009 (ip), vehicle: water.

Results on 13 molecules are retold here after PubChem BioAssay AID252 (DTP/NCI, 2004).

Several values for one entry are separate records, joined by “and”; a condition that tells them apart may be missing. Equal entries are not always repeated. Inconclusive results and toxic doses are left out.

On to `OCCOCCN1CCN(CCCN2c3ccccc3Sc3ccc(C(F)(F)F)cc32)CC1`, for which the T/C by setting is: (endpoint: mean survival time, dose: 18.7 mg/kg/injection, schedule: Q04DX003 (ip), vehicle: saline) 106 % of control; (endpoint: mean survival time, dose: 37.5 mg/kg/injection, schedule: Q04DX003 (ip), vehicle: saline) 106 % of control; (endpoint: mean survival time, dose: 75.0 mg/kg/injection, schedule: Q04DX003 (ip), vehicle: saline) 106 % of control.
With `S=c1nc[nH]c2nc[nH]c12`, the T/C is 122 % of control (endpoint: mean survival time, dose: 5.0 mg/kg/injection, schedule: Q01DX009 (ip), vehicle: alkali diluted with saline); 114 % of control (endpoint: mean survival time, dose: 6.0 mg/kg/injection, schedule: Q01DX015 (ip), vehicle: alkali diluted with saline); 120 % of control (endpoint: mean survival time, dose: 9.0 mg/kg/injection, schedule: Q01DX015 (ip), vehicle: alkali diluted with saline); 120 % of control (endpoint: mean survival time, dose: 14.0 mg/kg/injection, schedule: Q01DX015 (ip), vehicle: alkali diluted with saline); 111 % of control (endpoint: mean survival time, dose: 60.0 mg/kg/injection, schedule: Q01DX001 (ip), vehicle: alkali diluted with saline); 181 % of control (endpoint: mean survival time, dose: 80.0 mg/kg/injection, schedule: Q01DX009 (ip), vehicle: alkali diluted with saline). Moreover, the T/C by setting is: (endpoint: mean survival time, dose: 90.0 mg/kg/injection, schedule: Q01DX001 (ip), vehicle: alkali diluted with saline) 117 % of control; (endpoint: mean survival time, dose: 135.0 mg/kg/injection, schedule: Q01DX001 (ip), vehicle: alkali diluted with saline) 115 % of control; (endpoint: median survival time, dose: 100.0 mg/kg/injection, schedule: Q01DX001 (oral), vehicle: saline with Tween-80) 115 % of control; (endpoint: median survival time, dose: 200.0 mg/kg/injection, schedule: Q01DX001 (oral), vehicle: saline with Tween-80) 113 % of control; (endpoint: median survival time, dose: 400.0 mg/kg/injection, schedule: Q01DX001 (oral), vehicle: saline with Tween-80) 118 % of control.
For the molecule `N=c1ccn2c(n1)OC1C(O)C(CO)OC12` (centres undefined), the T/C (endpoint: mean survival time, dose: 50.0 mg/kg/injection, schedule: Q01DX009 (oral), vehicle: saline) was 220 % of control; the T/C (endpoint: mean survival time, dose: 50.0 mg/kg/injection, schedule: Q08DX009 (ip), vehicle: water) was 175 % of control; the T/C (endpoint: mean survival time, dose: 100.0 mg/kg/injection, schedule: Q01DX009 (oral), vehicle: saline) is 228 % of control; the T/C (endpoint: mean survival time, dose: 100.0 mg/kg/injection, schedule: Q01DX009 (oral), vehicle: water) is 186 % of control; the T/C (endpoint: mean survival time, dose: 100.0 mg/kg/injection, schedule: Q08DX009 (ip), vehicle: water) was 196 % of control; the T/C (endpoint: mean survival time, dose: 200.0 mg/kg/injection, schedule: Q01DX009 (oral), vehicle: saline) is 255 % of control. The T/C is 201 % of control (endpoint: mean survival time, dose: 200.0 mg/kg/injection, schedule: Q01DX009 (oral), vehicle: water); 215 % of control and 258 % of control (endpoint: mean survival time, dose: 200.0 mg/kg/injection, schedule: Q08DX009 (ip), vehicle: water); 232 % of control and 217 % of control (endpoint: mean survival time, dose: 300.0 mg/kg/injection, schedule: Q08DX009 (ip), vehicle: water); 193 % of control (endpoint: mean survival time, dose: 400.0 mg/kg/injection, schedule: Q01DX009 (oral), vehicle: saline); 223 % of control (endpoint: mean survival time, dose: 400.0 mg/kg/injection, schedule: Q01DX009 (oral), vehicle: water); 285 % of control (endpoint: mean survival time, dose: 400.0 mg/kg/injection, schedule: Q08DX009 (ip), vehicle: water). Also, the T/C under setting [1] is 167 % of control; the T/C (endpoint: median survival time, dose: 100.0 mg/kg/injection, schedule: Q01DX009 (ip), vehicle: water) was 196 % of control; the T/C (endpoint: median survival time, dose: 108.0 mg/kg/injection, schedule: Q01DX009 (ip), vehicle: water) is 176 % of control; the T/C (endpoint: median survival time, dose: 200.0 mg/kg/injection, schedule: Q01DX009 (ip), vehicle: water) is 223 % of control; the T/C (endpoint: median survival time, dose: 400.0 mg/kg/injection, schedule: Q01DX009 (ip), vehicle: water) is 354 % of control.
In the case of `O=NN(CCCl)C(=O)Nc1ccc(C(F)(F)F)cc1`, the T/C (endpoint: mean survival time, dose: 37.0 mg/kg/injection, schedule: Q01DX001 (ip), vehicle: carboxymethylcellulose (CMC)) was 110 % of control; the T/C (endpoint: mean survival time, dose: 50.0 mg/kg/injection, schedule: Q01DX001 (ip), vehicle: carboxymethylcellulose (CMC)) is 110 % of control; the T/C (endpoint: mean survival time, dose: 75.0 mg/kg/injection, schedule: Q01DX001 (ip), vehicle: carboxymethylcellulose (CMC)) was 118 % of control; the T/C (endpoint: mean survival time, dose: 112.0 mg/kg/injection, schedule: Q01DX001 (ip), vehicle: carboxymethylcellulose (CMC)) was 92 % of control.
As for `Cc1c(O)ccc(=O)n1O`, the T/C reads like this: (endpoint: mean survival time, dose: 49.0 mg/kg/injection, schedule: Q01DX Z (ip), vehicle: other) 98 % of control; (endpoint: mean survival time, dose: 73.0 mg/kg/injection, schedule: Q01DX Z (ip), vehicle: other) 96 % of control; (endpoint: mean survival time, dose: 110.0 mg/kg/injection, schedule: Q01DX Z (ip), vehicle: other) 93 % of control; (endpoint: mean survival time, dose: 165.0 mg/kg/injection, schedule: Q01DX Z (ip), vehicle: other) 110 % of control; (endpoint: mean survival time, dose: 247.0 mg/kg/injection, schedule: Q01DX Z (ip), vehicle: other) 92 % of control.
`CSCS(=O)C[C@H](CO)NC(=O)/C=C/c1c(C)[nH]c(=O)[nH]c1=O` (some centres undefined): the T/C is 95 % of control (endpoint: mean survival time, dose: 1.1 mg/kg/injection, schedule: Q01DX001 (ip), vehicle: carboxymethylcellulose (CMC)); 101 % of control (endpoint: mean survival time, dose: 1.7 mg/kg/injection, schedule: Q01DX001 (ip), vehicle: carboxymethylcellulose (CMC)); 98 % of control (endpoint: mean survival time, dose: 2.6 mg/kg/injection, schedule: Q01DX001 (ip), vehicle: carboxymethylcellulose (CMC)).
With `O=NN(CCCl)C(=O)NC12CC3CC(CC(C3)C1)C2`, the T/C runs as follows: (endpoint: mean survival time, dose: 26.0 mg/kg/injection, schedule: Q01DX001 (ip), vehicle: carboxymethylcellulose (CMC)) 108 % of control; (endpoint: mean survival time, dose: 40.0 mg/kg/injection, schedule: Q01DX001 (ip), vehicle: carboxymethylcellulose (CMC)) 112 % of control; (endpoint: mean survival time, dose: 90.0 mg/kg/injection, schedule: Q01DX001 (ip), vehicle: carboxymethylcellulose (CMC)) 120 % of control.
As to `O=c1[nH]c(=O)n([C@H]2CCCO2)cc1F`, the T/C reads like this: (endpoint: median survival time, dose: 23.0 mg/kg/injection, schedule: Q01DX009 (ip), vehicle: water) 95 % of control; (endpoint: median survival time, dose: 39.0 mg/kg/injection, schedule: Q01DX009 (ip), vehicle: water) 107 % of control; under setting [1], 101 % of control; (endpoint: median survival time, dose: 65.0 mg/kg/injection, schedule: Q04DX003 (ip), vehicle: water) 97 % of control; (endpoint: median survival time, dose: 108.0 mg/kg/injection, schedule: Q04DX003 (ip), vehicle: water) 99 % of control; (endpoint: median survival time, dose: 180.0 mg/kg/injection, schedule: Q01DX009 (ip), vehicle: water) 97 % of control. Besides, the T/C (endpoint: median survival time, dose: 180.0 mg/kg/injection, schedule: Q04DX003 (ip), vehicle: water) is 111 % of control.
Take `O=NN(CCF)C(=O)Nc1c[nH]c(=O)[nH]c1=O`: the T/C reads like this: (endpoint: mean survival time, dose: 9.0 mg/kg/injection, schedule: Q01DX001 (ip), vehicle: carboxymethylcellulose (CMC)) 103 % of control; (endpoint: mean survival time, dose: 13.0 mg/kg/injection, schedule: Q01DX001 (ip), vehicle: carboxymethylcellulose (CMC)) 105 % of control; (endpoint: mean survival time, dose: 20.0 mg/kg/injection, schedule: Q01DX001 (ip), vehicle: carboxymethylcellulose (CMC)) 110 % of control.
With `C[C@H]1CN1C1=CC(=O)C(N2C[C@@H]2C)=CC1=O`, under “endpoint: mean survival time, dose: 8.0 mg/kg/injection, schedule: Q01DX009 (ip), vehicle: saline”, the T/C is 90 % of control.
For `Cc1c(C)c(NC(=O)N(CCCl)N=O)c(C)c(C)c1NC(=O)N(CCCl)N=O`, the T/C reads like this: (endpoint: mean survival time, dose: 15.5 mg/kg/injection, schedule: Q01DX001 (ip), vehicle: other) 102 % of control; (endpoint: mean survival time, dose: 31.0 mg/kg/injection, schedule: Q01DX001 (ip), vehicle: other) 98 % of control; (endpoint: mean survival time, dose: 62.0 mg/kg/injection, schedule: Q01DX001 (ip), vehicle: other) 101 % of control; (endpoint: mean survival time, dose: 250.0 mg/kg/injection, schedule: Q01DX001 (ip), vehicle: other) 171 % of control and 175 % of control; (endpoint: mean survival time, dose: 375.0 mg/kg/injection, schedule: Q01DX001 (ip), vehicle: other) 182 % of control and 183 % of control; (endpoint: mean survival time, dose: 500.0 mg/kg/injection, schedule: Q01DX001 (ip), vehicle: other) 172 % of control and 178 % of control. Besides, under “endpoint: mean survival time, dose: 501.0 mg/kg/injection, schedule: Q01DX001 (ip), vehicle: other”, the T/C was 93 % of control.
As for `CN(C)CC(=O)c1ccc(O)c(O)c1`, the T/C is, setting by setting: (endpoint: median survival time, dose: 100.0 mg/kg/injection, schedule: Q01DX005 (ip), vehicle: saline) 101 % of control; (endpoint: median survival time, dose: 200.0 mg/kg/injection, schedule: Q01DX005 (ip), vehicle: saline) 101 % of control; (endpoint: median survival time, dose: 400.0 mg/kg/injection, schedule: Q01DX005 (ip), vehicle: saline) 98 % of control; (endpoint: median survival time, dose: 800.0 mg/kg/injection, schedule: Q01DX005 (ip), vehicle: saline) 113 % of control.
As for `O=NN(CCBr)C(=O)NCCBr`, the T/C (endpoint: mean survival time, dose: 133.0 mg/kg/injection, schedule: Q01DX001 (ip), vehicle: carboxymethylcellulose (CMC)) is 112 % of control.
